Experiments:
MmGSTP1-1 [1] = biological target: T1, MmGSTP1-1 (Mus musculus, UniProt P19157); assay: steady-state kinetics (Km); assay type: biochemical
T1 construct: gene Gstp1; recombinant MmGSTP1-1 (GenBank BC061109.1), expressed in E. coli

MmGSTP1-1 [2] = biological target: T1, MmGSTP1-1; assay: X-ray co-crystal structure, […] Å; assay type: binding
MmGSTP1-1 [3] = biological target: T1, MmGSTP1-1; assay: CDNB-GSH enzyme assay, single concentration […]; assay type: biochemical; conditions: read-out: % inhibition at 25 μM
MmGSTP1-1 [4] = biological target: T1, MmGSTP1-1; assay: CDNB-GSH enzyme assay at […] nm, inhibition kinetics (KiE, GSH varied); IC50 […]; assay type: biochemical

T1 sequence (P19157 2-210): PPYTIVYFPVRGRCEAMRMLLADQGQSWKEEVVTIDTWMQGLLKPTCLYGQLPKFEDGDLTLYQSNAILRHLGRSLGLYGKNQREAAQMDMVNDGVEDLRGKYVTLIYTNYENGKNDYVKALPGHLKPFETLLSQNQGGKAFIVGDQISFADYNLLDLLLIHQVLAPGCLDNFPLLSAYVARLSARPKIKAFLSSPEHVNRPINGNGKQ

SMILES	inhibition at 25 µM (MmGSTP1-1 [3])	other results
O=[N+]([O-])c1ccc(Cl)c([N+](=O)[O-])c1 [1-chloro-2,4-dinitrobenzene]		Km (MmGSTP1-1 [1]): 800 ± 40 µM
N[C@@H](CCC(=O)N[C@@H](CSCc1ccc([N+](=O)[O-])cc1)C(=O)NCC(=O)O)C(=O)O [S-(p-nitrobenzyl)glutathione]		X-ray co-crystal structure, 1.28 Å (MmGSTP1-1 [2]): A molecule of Nb-GSH was found bound in the active site of each molecule of the dimer
CC1(C)[C@H](C(=O)O[C@H](C#N)c2cccc(Oc3ccccc3)c2)[C@@H]1C=C(Br)Br [deltamethrin]	82%	
CSC1=N[C@@](C)(c2ccccc2)C(=O)N1Nc1ccccc1 [fenamidone]	53%	
CC(C)NC(=O)N1CC(=O)N(c2cc(Cl)cc(Cl)c2)C1=O [iprodione, 3-(3,5-dichlorophenyl)-2,4-dioxo-N-propan-2-ylimidazolidine-1-carboxamide]		Ki (MmGSTP1-1 [4]): 5.2 ± 0.1 µM
Cc1cc(C)c(C2=C(OC(=O)CC(C)(C)C)C3(CCCC3)OC2=O)c(C)c1 [spiromesifen]	70%	
O=S1OC[C@@H]2[C@H](CO1)[C@@]1(Cl)C(Cl)=C(Cl)[C@]2(Cl)C1(Cl)Cl (stereo partly drawn) [α-endosulfan]	58%	

— article PMC10136361 (Biomolecules, 2023)
